# Patent US12364696B2, “Treatment of autoimmune disease” (priority 2019, dated 2025)
# Like-named read-outs stand apart in the source and are kept apart here.
# Legend:
# [1] = system: male patients with alopecia areata of the beard (BAA)
# [2] = system: patients with lichen planopilaris and frontal fibrosing alopecia; conditions: for Patient-reported response: ceased treatment
# [3] = oral tofacitinib; cited from earlier work
# [4] = system: patients with alopecia areata; conditions: oral tofacitinib 5 mg twice daily for 3 months; cited from earlier work
# [5] = BAA subtype multiple patches, % of n = 45
# [6] = BAA subtype solitary patch, % of n = 45
# [7] = BAA subtype total beard loss, % of n = 45
# [8] = all patients, n = 45 (21 oral, 24 sublingual)
# [9] = degree of scalp hair regrowth Complete
# [10] = degree of scalp hair regrowth Complete, % of n = 45
# [11] = degree of scalp hair regrowth None
# [12] = degree of scalp hair regrowth None, % of n = 45
# [13] = degree of scalp hair regrowth Partial
# [14] = degree of scalp hair regrowth Partial, % of n = 45
smiles,measurement,setting,value
C[C@@H]1CCN(C(=O)CC#N)C[C@@H]1N(C)c1ncnc2[nH]ccc12 [tofacitinib],Duration of treatment after which complete beard regrowth was achieved (mean),[1]; 10 complete beard responders,16.0 months
same,Duration of treatment after which complete beard regrowth was achieved (range),[1]; 10 complete beard responders,5.0-28.0 months
same,Men with complete beard regrowth who also achieved complete scalp hair regrowth,[1]; 10 complete beard responders,60%
same,"Degree of beard regrowth Complete, number of patients",[1]; BAA subtype multiple patches,7
same,"Degree of beard regrowth None, number of patients",[1]; BAA subtype multiple patches,8
same,"Degree of beard regrowth Partial, number of patients",[1]; BAA subtype multiple patches,9
same,"Degree of beard regrowth Complete, % of patients",[1]; [5],15.6%
same,"Degree of beard regrowth None, % of patients",[1]; [5],17.8%
same,"Degree of beard regrowth Partial, % of patients",[1]; [5],20.0%
same,"Degree of beard regrowth Complete, number of patients",[1]; BAA subtype solitary patch,0
same,"Degree of beard regrowth None, number of patients",[1]; BAA subtype solitary patch,2
same,"Degree of beard regrowth Partial, number of patients",[1]; BAA subtype solitary patch,0
same,"Degree of beard regrowth Complete, % of patients",[1]; [6],0.0%
same,"Degree of beard regrowth None, % of patients",[1]; [6],4.5%
same,"Degree of beard regrowth Partial, % of patients",[1]; [6],0.0%
same,"Degree of beard regrowth Complete, number of patients",[1]; BAA subtype total beard loss,3
same,"Degree of beard regrowth None, number of patients",[1]; BAA subtype total beard loss,6
same,"Degree of beard regrowth Partial, number of patients",[1]; BAA subtype total beard loss,10
same,"Degree of beard regrowth Complete, % of patients",[1]; [7],6.7%
same,"Degree of beard regrowth None, % of patients",[1]; [7],13.3%
same,"Degree of beard regrowth Partial, % of patients",[1]; [7],22.2%
same,"Degree of beard regrowth Complete, % of patients",[1]; [8],22.2%
same,"Degree of beard regrowth Complete, number of patients",[1]; [8],Ten
same,"Degree of beard regrowth None, % of patients",[1]; [8],35.6%
same,"Degree of beard regrowth None, number of patients",[1]; [8],16
same,"Degree of beard regrowth Partial, % of patients",[1]; [8],42.2%
same,"Degree of beard regrowth Partial, number of patients",[1]; [8],19
same,"Degree of beard regrowth Complete, number of patients","[1]; all patients, n = 45 (21 oral, 24 sublingual), listed as oral tofacitinib",10
same,"Degree of beard regrowth Complete, number of patients",[1]; [9],6
same,"Degree of beard regrowth None, number of patients",[1]; [9],0
same,"Degree of beard regrowth Partial, number of patients",[1]; [9],1
same,"Degree of beard regrowth Complete, % of patients",[1]; [10],13.3%
same,"Degree of beard regrowth None, % of patients",[1]; [10],0.0%
same,"Degree of beard regrowth Partial, % of patients",[1]; [10],2.2%
same,"Degree of beard regrowth Complete, number of patients",[1]; [11],1
same,"Degree of beard regrowth None, number of patients",[1]; [11],14
same,"Degree of beard regrowth Partial, number of patients",[1]; [11],3
same,"Degree of beard regrowth Complete, % of patients",[1]; [12],2.2%
same,"Degree of beard regrowth None, % of patients",[1]; [12],31.1%
same,"Degree of beard regrowth Partial, % of patients",[1]; [12],6.7%
same,"Degree of beard regrowth Complete, number of patients",[1]; [13],3
same,"Degree of beard regrowth None, number of patients",[1]; [13],2
same,"Degree of beard regrowth Partial, number of patients",[1]; [13],15
same,"Degree of beard regrowth Complete, % of patients",[1]; [14],6.7%
same,"Degree of beard regrowth None, % of patients",[1]; [14],4.5%
same,"Degree of beard regrowth Partial, % of patients",[1]; [14],33.3%
same,"Patients with mild adverse events (upper respiratory infections, elevated liver transaminases, fatigue, acne)","[1]; n = 45, oral or sublingual",10
same,Serious adverse events,"[1]; n = 45, oral or sublingual",no serious adverse events
same,"SALT score post-tofacitinib, Mean ± SD","[1]; n = 45, oral or sublingual, pre-tofacitinib 62.0 ± 38.9",41.7 ± 38.5
same,"SALT score post-tofacitinib, Median (Range)","[1]; n = 45, oral or sublingual, pre-tofacitinib 69.0 (2.0-100.0)",29.0 (0.0-100.0)
same,"Complete response, number of patients","[1]; oral, N = 21, beard",0
same,"No response, number of patients","[1]; oral, N = 21, beard",9
same,"Partial response, number of patients","[1]; oral, N = 21, beard",12
same,"Complete response, number of patients","[1]; sublingual, n = 24, beard",10
same,"No response, number of patients","[1]; sublingual, n = 24, beard",7
same,"Partial response, number of patients","[1]; sublingual, n = 24, beard",7
same,Side effects,[2]; Patient 1,No side effects
same,Activity of lichen planopilaris,"[2]; Patient 1, sublingual 5-10 mg daily, July 2019 to February 2020, with concurrent medications",controlled
same,Side effects,[2]; Patient 2,No side effects
same,Symptoms of lichen planopilaris,"[2]; Patient 2, up to 5 mg in the morning and 2.5 mg at night, with concurrent medications",symptom-free
same,Patient-reported response,"[2]; Patient 3, lichen planopilaris, 2 mg twice daily increased to 7.5 mg",not happy with the response
same,Patient-reported response,"[2]; Patient 4, lichen planopilaris/frontal fibrosing alopecia, 2.5 mg twice daily for 12 months",not happy with the response
same,Effect on symptoms of lichen planopilaris and frontal fibrosing alopecia,"[2]; series of case studies, sublingual",demonstrated activity at reducing the symptoms
same,Reported elimination half-life,[3],3 h
same,Patients achieving a 50% or greater reduction in SALT score,[4],32%
